What all share (type): in vivo
For test [1], the system named is crabgrass (Digitaria sanguinalis L.). The experiment in a line: Foliar treatment pot test, visual growth inhibition rate, crabgrass (DS). An excerpt:
(§1) When the herbicidal activity in a case where two active ingredients are combined, is larger than the simple sum of the respective herbicidal activities of the two active ingredients (the expected activity), it is called a synergistic effect. The activity expected by the combination of two active ingredients can be calculated as follows (Colby S. R., “Weed”, vol. 15, p. 20-22, 1967). E=α+β−(α×β÷100) where
(§2) Upland field soil was put into a 1/1,000,000 hectare pot, and seeds of various plants (barnyardgrass (Echinochloa crus-qalli L.), crabgrass (Digitaria sanguinalis L.), giant foxtail (Setaria faberi Herrm.), velvetleaf (Abutilon theophrasti MEDIC.) and prickly sida (Sida spinosa L.)) were sown. When the respective plants reached predetermined leaf stage, herbicidal compositions in predetermined amounts were diluted with water in an amount corresponding to 300 L/ha and applied for foliar treatment by a small sprayer.
(§3) Further, in accordance with the above Colby's formula, the growth inhibition rate (calculated value) was calculated. In Tables, with respect to the compound Q, Compound Nos. in Table 1 are described, and with respect to other herbicidal compounds, common names are described. Further, in Tables, barnyardgrass is represented by “EC”, crabgrass by “DS”, giant foxtail by “SF”, velvetleaf by “AT”, and prickly sida by “SS”.

Test [2] relates to velvetleaf (Abutilon theophrasti MEDIC.). The test can be described thus: Foliar treatment pot test, visual growth inhibition rate, velvetleaf (AT).
Description: as §1, §2, §3

The test system of test [3] is prickly sida (Sida spinosa L.). The experiment in a line: Foliar treatment pot test, visual growth inhibition rate, prickly sida (SS). As to conditions: for inhibition at 15 g/ha: 1.5-2.4 leaf stage.
Description: as §1, §2, §3

The source of these data is patent publication US8492310B2, “Herbicidal compositions containing benzoylpyrazole compounds” (priority 2008, dated 2013).

Like-named read-outs stand apart in the source and are kept apart here.

Regarding `COc1cc(OC)nc(NC(=O)NS(=O)(=O)c2ncccc2C(=O)N(C)C)n1` [Nicosulfuron, nicosulfuron], the inhibition at 5 g/ha in test [1] (Digitaria sanguinalis, foliar, 336 h, 3.5-4.3 leaf stage, 14 DAT, 5 g/ha, read-out: Growth inhibition rate (%) of DS Measured value) turned out to be 15%; in test [2] (Abutilon theophrasti, foliar, 480 h, 3.1-3.4 leaf stage, 20 DAT, 5 g/ha, read-out: Growth inhibition rate (%) of AT Measured value), 10%; in test [3] (Sida spinosa, foliar, 504 h, 2.1 to 3.1 leaf stage, 21 DAT, 5 g/ha, read-out: Growth inhibition rate (%) of SS Measured value) it was 0%. The inhibition at 10 g/ha in test [1] (Digitaria sanguinalis, foliar, 504 h, 3.5 to 4.3 leaf stage, 21 DAT, 10 g/ha, read-out: Growth inhibition rate (%) of DS Measured value) was found to be 30%; in test [2] (Abutilon theophrasti, foliar, 528 h, 4.0-4.4 leaf stage, 22 DAT, 10 g/ha, read-out: Growth inhibition rate (%) of AT Measured value), 40%; in test [3] (Sida spinosa, foliar, 504 h, 2.1 to 3.1 leaf stage, 21 DAT, 10 g/ha, read-out: Growth inhibition rate (%) of SS Measured value) it was 10%. The inhibition at 20 g/ha in test [1] (Digitaria sanguinalis, foliar, 504 h, 4.5-5.1 leaf stage, 21 DAT, 20 g/ha, read-out: Growth inhibition rate (%) of DS Measured value) was 50%; in test [3] (Sida spinosa, foliar, 504 h, 2.1 to 3.1 leaf stage, 21 DAT, 20 g/ha, read-out: Growth inhibition rate (%) of SS Measured value), 40%. The inhibition at 80 g/ha in test [1] (Digitaria sanguinalis, foliar, 504 h, 4.5-5.1 leaf stage, 21 DAT, 80 g/ha, read-out: Growth inhibition rate (%) of DS Measured value) came to 94%; in test [2] (Abutilon theophrasti, foliar, 504 h, 4.0-4.5 leaf stage, 21 DAT, 80 g/ha, read-out: Growth inhibition rate (%) of AT Measured value) it was 83%. Also, the inhibition at 7 g/ha turned out to be 30% in test [2] (Abutilon theophrasti, foliar, 504 h, 3.8-4.4 leaf stage, 21 DAT, read-out: Growth inhibition rate (%) of AT Measured value) and 45% in test [2] (Abutilon theophrasti, foliar, 528 h, 3.3-3.8 leaf stage, 22 DAT, read-out: Growth inhibition rate (%) of AT Measured value). For the same molecule, in test [2] (Abutilon theophrasti, foliar, 504 h, 4.0-4.5 leaf stage, 21 DAT, 40 g/ha, read-out: Growth inhibition rate (%) of AT Measured value), the inhibition at 40 g/ha was found to be 65%. Further, the inhibition at 60 g/ha in test [2] (Abutilon theophrasti, foliar, 504 h, 4.0-4.5 leaf stage, 21 DAT, 60 g/ha, read-out: Growth inhibition rate (%) of AT Measured value) is 70%. The inhibition at 15 g/ha in test [2] (Abutilon theophrasti, foliar, 528 h, 3.3-3.8 leaf stage, 22 DAT, 15 g/ha, read-out: Growth inhibition rate (%) of AT Measured value) was 60%; in test [3] (Sida spinosa, foliar, 480 h, 20 DAT, read-out: Growth inhibition rate (%) of SS Measured value), 45%; in test [3] (Sida spinosa, foliar, 504 h, 21 DAT, read-out: Growth inhibition rate (%) of SS Measured value), 45%. The inhibition at 30 g/ha in test [2] (Abutilon theophrasti, foliar, 528 h, 3.3-3.8 leaf stage, 22 DAT, 30 g/ha, read-out: Growth inhibition rate (%) of AT Measured value) came out at 70%; in test [3] (Sida spinosa, foliar, 504 h, 2.1 to 3.1 leaf stage, 21 DAT, 30 g/ha, read-out: Growth inhibition rate (%) of SS Measured value) it was 50%. Besides, in test [3] (Sida spinosa, foliar, 504 h, 2.1 to 3.1 leaf stage, 21 DAT, 2.5 g/ha, read-out: Growth inhibition rate (%) of SS Measured value), the inhibition at […] stood at 0%. The inhibition at 50 g/ha in test [3] (Sida spinosa, foliar, 504 h, 2.1 to 3.1 leaf stage, 21 DAT, 50 g/ha, read-out: Growth inhibition rate (%) of SS Measured value) amounted to 70%.

With `CCc1cccc(C)c1N(C(=O)CCl)[C@@H](C)COC` [S-Metolachlor, S-metolachlor], the “Growth inhibition rate (%) of DS Measured value” in test [1] (3.5-4.3 leaf stage, 21 DAT, 400 g/ha) is recorded as 0%; in test [1] (4.0-5.0 leaf stage, 14 DAT, 150 g/ha) it was 0%; in test [1] (4.0-5.1 leaf stage, 21 DAT, 300 g/ha), 0%; in test [1] (5.0-6.0 leaf stage, 14 DAT, 800 g/ha) it was 0%. Besides, the “Growth inhibition rate (%) of AT Measured value” in test [2] (3.0-3.5 leaf stage, 21 DAT, 300 g/ha) turned out to be 0%; in test [2] (3.0-3.8 leaf stage, 21 DAT, 400 g/ha), 0%; in test [2] (3.0-4.0 leaf stage, 14 DAT, 150 g/ha), 0%; in test [2] (4.6-5.3 leaf stage, 14 DAT, 1200 g/ha) it was 0%. Besides, the “Growth inhibition rate (%) of SS Measured value” in test [3] (3.0-3.3 leaf stage, 21 DAT, 800 g/ha) was found to be 20%.

Regarding `CCOCCN(C(=O)CCl)C(=C(C)C)c1ccccc1` [Pethoxamid, pethoxamid], the “Growth inhibition rate (%) of DS Measured value” in test [1] (3.6-3.8 leaf stage, 20 DAT, 100 g/ha) came out at 0%; in test [1] (3.6-3.8 leaf stage, 20 DAT, 200 g/ha), 0%; in test [1] (3.6-3.8 leaf stage, 20 DAT, 400 g/ha), 0%; in test [1] (4.4-5.0 leaf stage, 13 DAT, 200 g/ha) it was 0%. The “Growth inhibition rate (%) of AT Measured value” in test [2] (3.3-4.2 leaf stage, 13 DAT, 200 g/ha) is listed as 0%.

For `Cn1nc(C(F)(F)F)c(CS(=O)(=O)C2=NOC(C)(C)C2)c1OC(F)F` [Pyroxasulfone, pyroxasulfone], the inhibition at 50 g/ha in test [1] (Digitaria sanguinalis, foliar, 312 h, 4.4-5.0 leaf stage, 13 DAT, 50 g/ha, read-out: Growth inhibition rate (%) of DS Measured value) amounted to 0%; in test [1] (Digitaria sanguinalis, foliar, 504 h, 4.0-5.0 leaf stage, 21 DAT, 50 g/ha, read-out: Growth inhibition rate (%) of DS Measured value), 10%; in test [2] (Abutilon theophrasti, foliar, 312 h, 3.3-4.2 leaf stage, 13 DAT, read-out: Growth inhibition rate (%) of AT Measured value), 5%; in test [2] (Abutilon theophrasti, foliar, 336 h, 3.0-4.0 leaf stage, 14 DAT, read-out: Growth inhibition rate (%) of AT Measured value) it was 0%; in test [2] (Abutilon theophrasti, foliar, 504 h, 3.0-3.5 leaf stage, 21 DAT, read-out: Growth inhibition rate (%) of AT Measured value), 0%. The inhibition at 100 g/ha in test [1] (Digitaria sanguinalis, foliar, 336 h, 4.0-5.0 leaf stage, 14 DAT, 100 g/ha, read-out: Growth inhibition rate (%) of DS Measured value) worked out at 5%.

On to `CS(=O)(=O)c1ccc(C(=O)C2C(=O)CCCC2=O)c(Cl)c1` [Sulcotrione], for which the inhibition at 25 g/ha in test [1] (Digitaria sanguinalis, foliar, 480 h, read-out: Growth inhibition rate (%) of DS Measured value, 3.7-4.0 leaf stage, 20 DAT, 25 g/ha) was determined as 45%. For the same molecule, the inhibition at 50 g/ha in test [1] (Digitaria sanguinalis, foliar, 480 h, read-out: Growth inhibition rate (%) of DS Measured value, 3.7-4.0 leaf stage, 20 DAT, 50 g/ha) was 60%; in test [1] (Digitaria sanguinalis, foliar, 480 h, read-out: Growth inhibition rate (%) of DS Measured value, 5.1-5.2 leaf stage, 20 DAT, 50 g/ha), 60%. Moreover, the inhibition at 100 g/ha in test [1] (Digitaria sanguinalis, foliar, 480 h, read-out: Growth inhibition rate (%) of DS Measured value, 3.7-4.0 leaf stage, 20 DAT, 100 g/ha) came to 80%; in test [1] (Digitaria sanguinalis, foliar, 480 h, read-out: Growth inhibition rate (%) of DS Measured value, 5.1-5.2 leaf stage, 20 DAT, 100 g/ha) it was 95%. Also, in test [2] (Abutilon theophrasti, foliar, 576 h, read-out: Growth inhibition rate (%) of AT Measured value, 3.2-4.1 leaf stage, 24 DAT, 31 g/ha), the inhibition at 31 g/ha came to 60%.

In the case of `CP(=O)(O)CCC(N)C(=O)O` (centres unmarked) [Glufosinate-ammonium, glufosinate-ammonium], in test [1] (Digitaria sanguinalis, foliar, 528 h, read-out: Growth inhibition rate (%) of DS Measured value, 4.0-5.0 leaf stage, 22 DAT, 100 g/ha), the inhibition at 100 g/ha amounted to 0%. Also, the inhibition at 200 g/ha is 10% in test [2] (Abutilon theophrasti, foliar, 528 h, read-out: Growth inhibition rate (%) of AT Measured value, 4.1-4.5 leaf stage, 22 DAT, 200 g/ha) and 30% in test [2] (Abutilon theophrasti, foliar, 576 h, read-out: Growth inhibition rate (%) of AT Measured value, 3.2-4.1 leaf stage, 24 DAT, 200 g/ha).

Take `CCC(CC)Nc1c([N+](=O)[O-])cc(C)c(C)c1[N+](=O)[O-]` [Pendimethalin, pendimethalin]: in test [1] (Digitaria sanguinalis, foliar, 480 h, 4.5-5.2 leaf stage, 20 DAT, 62.5 g/ha, read-out: Growth inhibition rate (%) of DS Measured value), the inhibition at 62.5 g/ha worked out at 0%. In addition, the inhibition at 125 g/ha came out at 0% in test [1] (Digitaria sanguinalis, foliar, 480 h, 4.5-5.2 leaf stage, 20 DAT, 125 g/ha, read-out: Growth inhibition rate (%) of DS Measured value) and 20% in test [2] (Abutilon theophrasti, foliar, 480 h, 4.2-4.3 leaf stage, 20 DAT, 125 g/ha, read-out: Growth inhibition rate (%) of AT Measured value). Further, the inhibition at 250 g/ha came to 0% in test [1] (Digitaria sanguinalis, foliar, 480 h, 4.5-5.2 leaf stage, 20 DAT, 250 g/ha, read-out: Growth inhibition rate (%) of DS Measured value) and 38% in test [2] (Abutilon theophrasti, foliar, 480 h, 4.2-4.3 leaf stage, 20 DAT, 250 g/ha, read-out: Growth inhibition rate (%) of AT Measured value). Further, the inhibition at 100 g/ha in test [2] (Abutilon theophrasti, foliar, 312 h, 3.3-4.2 leaf stage, 13 DAT, 100 g/ha, read-out: Growth inhibition rate (%) of AT Measured value) came out at 25%.
